# PMC12445744, “Molecular docking to homology models of human and Trypanosoma brucei ERK8 that identified ortholog-specific inhibitors” (PLOS Neglected Tropical Diseases, 2025)
# Values joined by “and” are separate entries in the source; they are usually repeats but may differ in a detail not shown here. Equal values may be shown once.
# Biological target: T1, HsERK8 (Homo sapiens, UniProt Q8TD08)
# T1 construct: plasmid pGEX2T expressing the full-length hERK8 coding region; made in house; host or cells: Escherichia coli Rosetta 2 (DE3)
# T1 sequence (Q8TD08 1-544): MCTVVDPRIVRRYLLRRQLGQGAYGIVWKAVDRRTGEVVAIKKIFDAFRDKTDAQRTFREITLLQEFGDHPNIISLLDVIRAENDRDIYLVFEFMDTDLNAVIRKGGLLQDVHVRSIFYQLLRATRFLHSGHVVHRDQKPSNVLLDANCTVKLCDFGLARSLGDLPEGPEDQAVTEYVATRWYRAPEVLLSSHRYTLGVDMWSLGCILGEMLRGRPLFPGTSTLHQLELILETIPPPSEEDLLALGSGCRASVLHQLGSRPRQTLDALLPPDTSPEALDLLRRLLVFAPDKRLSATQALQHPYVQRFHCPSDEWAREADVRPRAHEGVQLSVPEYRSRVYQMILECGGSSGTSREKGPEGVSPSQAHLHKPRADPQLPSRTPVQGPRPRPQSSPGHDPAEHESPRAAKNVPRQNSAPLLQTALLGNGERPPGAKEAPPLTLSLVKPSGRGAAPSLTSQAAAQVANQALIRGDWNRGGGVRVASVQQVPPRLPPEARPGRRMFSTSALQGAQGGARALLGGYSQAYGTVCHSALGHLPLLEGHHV
# Experiment: Luciferase-based kinase inhibition assay (ATP luminescence), GST-tagged HsERK8 with MBP substrate
# Format: biochemical
# Conditions: for raw luminescence, HsERK8: replicate wells; for Luminescence Raw (Kinase-Glo): HsERK8
# Description: Escherichia coli strain Rosetta 2 (DE3) (Cat# 71397, MilliporeSigma, Burlington, MA) was transformed with the plasmid pGEX2T expressing the full-length hERK8 coding region or pGSTAg expressing the full-length TbERK8 coding region. One liter of Terrific Broth media containing 100 μg/ml Ampicillin and 30 μg/ml chloramphenicol in 2 L baffled flasks was inoculated with 25 mL from an overnight culture of Rosetta 2 strains harboring either the pGEX2T-hERK8 or pGSTAg-TbERK8 plasmid. Two baffled flasks were inoculated with each overnight strain and incubated and shaken at 175 RPM in a New Brunswick Innova 44R Incubator Shaker (Fischer Scientific, Pittsburgh, PA) at 37 °C until the cultures reached an O.D.600 of 0.94. Once the cultures in the flask reached the target O.D.600, the flasks were cooled to 4 °C in an ice water bath. The cooled cultures were induced by adding isopropyl β-D-1-thiogalactopyranoside (IPTG) to a final concentration of 0.1 mM and shaken at 16 °C for 16 hours at 175 RPM in a New Brunswick Innova 44R Incubator Shaker (Fischer Scientific, Pittsburgh, PA). On the next day, the cultures were pelleted by centrifugation at 9000 xg in a JLA 10.500 rotor (Beckman Coulter; Brea, CA), and the media was decanted. The pellet was flash-frozen in liquid nitrogen and then thawed on ice. The thawed pellet was resuspended in lysis buffer (25 mM Tris, 75 mM NaCl, 0.5% TritonX-100 and 0.5% Nonidet P-40, 1 mM phenylmethanesulfonyl fluoride, 1 mM benzamidine⋅HCl) and lysed using a microfluidizer M-110P from Microfluidics (Westwood, MA). The crude lysates were clarified by centrifugation at 140,000 xg in a 45Ti rotor (Beckman Coulter, Brea, CA) for 30 min at 4°C. The clarified lysate was loaded by gravity to a 3 mL glutathione agarose resin column (Cat# G-250–10, GOLDBIO, St. Louis, MO) formed in a 1.5 × 20 cm glass chromatography column (Cat# 7371522, Bio-Rad, Hercules, CA). The column was washed with 30 mL of PBS (pH 7.4) containing 1 mM DTT. Elution buffer (50 mM Tris buffer pH 8.0 containing 10 mM reduced glutathione and 1 mM DTT was added to the washed column), and 1 mL fractions were collected by gravity and examined by SDS-PAGE stained by Coomassie dye. Peak fractions pooled from the elution were dialyzed (4x 1:500 dilutions) in kinase buffer (30 mM Tris, pH 7.4, 10 mM MgCl2, 1 mM DTT, 5% glycerol).
# We performed kinase assays in buffer K (30 mM Tris pH 7.4, 10 mM MgCl2, 1 mM DTT, 5% glycerol, 50 μM ATP, and 0.1 mg/mL BSA) at 30°C for 30 min in 30 μL reactions. GST-tagged HsERK8 and TbERK8 were tested using myelin basic protein (MBP) (Cat# 13–110, Millipore, Darmstadt, Germany) as the substrate at increasing concentrations to determine the optimal activity for the assay. ATP consumption was determined by adding equal volumes of the kinase assay reagent (Promega, Cat# V5601, Madison, WI) following the manufacturer’s protocol. Luminescence was measured using the microplate reader (SpectraMax L, Molecular Devices, Sunnyvale, CA).
# These compounds were screened for kinase inhibition utilizing a luciferase-based assay. Briefly, the kinases were tested using MBP as the substrate at a 14-fold molar excess in 384-well flat-bottom white plates (BRANDTECH Scientific, Cat# 781681, Essex, CT). These compounds were tested at concentrations ranging from […] to 150 nM. The kinases plus MBP substrate reactions were incubated with each inhibitor for 30 minutes at 30°C. Equal volumes of kinase assay mix Promega (Cat# V5601, Madison, WI) were added to the kinase/inhibitor reaction after 30 minutes, following the manufacturer’s protocol. ATP luminescence was measured using a microplate reader (SpectraMax L, Molecular Devices, Sunnyvale, CA). IC50 values were calculated from assays done in triplicate by fitting the data using Prism 8.1.1 (GraphPad).
smiles,measurement,setting,value
C[C@]12C=CC(=O)C=C1CC[C@@H]1[C@@H]2[C@@H](O)C[C@@]2(C)[C@H]1CC[C@]2(O)C(=O)CO [Prednisolone],IC50,,300 µM
same,"raw luminescence, HsERK8","0.00015 mM compound, sheet ADP_ATP_glo081724 (3)",2318.43 RLU and 2379.5 RLU and 1359.39 RLU
same,"raw luminescence, HsERK8","0.00015 mM compound, sheet Kinase_glo 08142024 (2)",11527 RLU and 11136 RLU and 8980.24 RLU
same,"raw luminescence, HsERK8","0.00015 mM compound, sheet Kinase_glo_080924_IFPS (2)",3541.75 RLU and 3582.18 RLU and 3076.85 RLU
same,"raw luminescence, HsERK8","0.00061 mM compound, sheet ADP_ATP_glo081724 (3)",2825.09 RLU and 2949.5 RLU and 2422.48 RLU
same,"raw luminescence, HsERK8","0.00061 mM compound, sheet Kinase_glo 08142024 (2)",11527 RLU and 11503.8 RLU and 9669.24 RLU
same,"raw luminescence, HsERK8","0.00061 mM compound, sheet Kinase_glo_080924_IFPS (2)",3770.83 RLU and 3829.22 RLU and 3330.64 RLU
same,"raw luminescence, HsERK8","0.00244 mM compound, sheet ADP_ATP_glo081724 (3)",3720.8 RLU and 3505.92 RLU and 3191.52 RLU
same,"raw luminescence, HsERK8","0.00244 mM compound, sheet Kinase_glo 08142024 (2)",11998.3 RLU and 11782.7 RLU and 9967.25 RLU
same,"raw luminescence, HsERK8","0.00244 mM compound, sheet Kinase_glo_080924_IFPS (2)",4143.65 RLU and 4112.2 RLU and 3658.53 RLU
same,"raw luminescence, HsERK8","0.00977 mM compound, sheet ADP_ATP_glo081724 (3)",3641.63 RLU and 3797.7 RLU and 3386.04 RLU
same,"raw luminescence, HsERK8","0.00977 mM compound, sheet Kinase_glo 08142024 (2)",11620 RLU and 11670.7 RLU and 9100.71 RLU
same,"raw luminescence, HsERK8","0.00977 mM compound, sheet Kinase_glo_080924_IFPS (2)",4774.74 RLU and 5053.23 RLU and 4529.94 RLU
same,"raw luminescence, HsERK8","0.03906 mM compound, sheet ADP_ATP_glo081724 (3)",4824.6 RLU and 4808.77 RLU and 4191.27 RLU
same,"raw luminescence, HsERK8","0.03906 mM compound, sheet Kinase_glo 08142024 (2)",13839.2 RLU and 14168.9 RLU and 11317.8 RLU
same,"raw luminescence, HsERK8","0.03906 mM compound, sheet Kinase_glo_080924_IFPS (2)",7209.85 RLU and 6169.43 RLU and 7796.61 RLU
same,"raw luminescence, HsERK8","0.15625 mM compound, sheet ADP_ATP_glo081724 (3)",6885.18 RLU and 7183.74 RLU and 7394.1 RLU
same,"raw luminescence, HsERK8","0.15625 mM compound, sheet Kinase_glo 08142024 (2)",27241.9 RLU and 27273.6 RLU and 25587 RLU
same,"raw luminescence, HsERK8","0.15625 mM compound, sheet Kinase_glo_080924_IFPS (2)",10574.2 RLU and 11234.5 RLU and 10315.9 RLU
same,"raw luminescence, HsERK8","0.62500 mM compound, sheet ADP_ATP_glo081724 (3)",8751.23 RLU and 9074.68 RLU and 6998.27 RLU
same,"raw luminescence, HsERK8","0.62500 mM compound, sheet Kinase_glo 08142024 (2)",32595.4 RLU and 32278.4 RLU and 37446.9 RLU
same,"raw luminescence, HsERK8","0.62500 mM compound, sheet Kinase_glo_080924_IFPS (2)",11504.5 RLU and 12982.8 RLU and 12069.3 RLU
same,"raw luminescence, HsERK8","2.50000 mM compound, sheet ADP_ATP_glo081724 (3)",11083.2 RLU and 11176 RLU and 9323.49 RLU
same,"raw luminescence, HsERK8","2.50000 mM compound, sheet Kinase_glo 08142024 (2)",34732.1 RLU and 34810.3 RLU and 30135.3 RLU
same,"raw luminescence, HsERK8","2.50000 mM compound, sheet Kinase_glo_080924_IFPS (2)",16242.2 RLU and 17136.1 RLU and 14690.3 RLU
same,"raw luminescence, HsERK8","10.00000 mM compound, sheet ADP_ATP_glo081724 (3)",12580.6 RLU and 13211.7 RLU and 13399.4 RLU
same,"raw luminescence, HsERK8","10.00000 mM compound, sheet Kinase_glo 08142024 (2)",37851.6 RLU and 37726.9 RLU and 37092.9 RLU
same,"raw luminescence, HsERK8","10.00000 mM compound, sheet Kinase_glo_080924_IFPS (2), signal = ATP left",19715.5 RLU and 19196.1 RLU and 19703.2 RLU
same,Luminescence Raw (Kinase-Glo),"inhibitor 0.00976562 mM, sheet Sil_Pred3, read 3",88068.9 and 93660.9 and 91592.3
same,Luminescence Raw (Kinase-Glo),"inhibitor 0.0195312 mM, sheet Sil_Pred3, read 3",91367.4 and 97331.9 and 97175
same,Luminescence Raw (Kinase-Glo),"inhibitor 0.0390625 mM, sheet Sil_Pred3, read 3",94347.3 and 94052.1 and 92142.9
same,Luminescence Raw (Kinase-Glo),"inhibitor 0.078125 mM, sheet Sil_Pred3, read 3",98578.2 and 105295 and 104564
same,Luminescence Raw (Kinase-Glo),"inhibitor 0.15625 mM, sheet Sil_Pred3, read 3",97978.5 and 103671 and 102378
same,Luminescence Raw (Kinase-Glo),"inhibitor 0.3125 mM, sheet Sil_Pred3, read 3",103442 and 105117 and 104861
same,Luminescence Raw (Kinase-Glo),"inhibitor 0.625 mM, sheet Sil_Pred3, read 3",118041 and 120665 and 116088
same,Luminescence Raw (Kinase-Glo),"inhibitor 0.00976562, sheet Sil_Pred1, read 1",100407 and 106564 and 102910
same,Luminescence Raw (Kinase-Glo),"inhibitor 0.00976562, sheet Sil_Pred2, read 2",90625.3 and 98037.5 and 95030.3
same,Luminescence Raw (Kinase-Glo),"inhibitor 0.0195312, sheet Sil_Pred1, read 1",105846 and 111118 and 110378
same,Luminescence Raw (Kinase-Glo),"inhibitor 0.0195312, sheet Sil_Pred2, read 2",95809.4 and 101447 and 100168
same,Luminescence Raw (Kinase-Glo),"inhibitor 0.0390625, sheet Sil_Pred1, read 1",108782 and 106859 and 106809
same,Luminescence Raw (Kinase-Glo),"inhibitor 0.0390625, sheet Sil_Pred2, read 2",97258.4 and 97956.1 and 97225.8
same,Luminescence Raw (Kinase-Glo),"inhibitor 0.078125, sheet Sil_Pred1, read 1",114996 and 120390 and 121203
same,Luminescence Raw (Kinase-Glo),"inhibitor 0.078125, sheet Sil_Pred2, read 2",101568 and 107854 and 109541
same,Luminescence Raw (Kinase-Glo),"inhibitor 0.15625, sheet Sil_Pred1, read 1",112780 and 119367 and 115572
same,Luminescence Raw (Kinase-Glo),"inhibitor 0.15625, sheet Sil_Pred2, read 2",101289 and 108375 and 104275
same,Luminescence Raw (Kinase-Glo),"inhibitor 0.3125, sheet Sil_Pred1, read 1",120905 and 121070 and 122162
same,Luminescence Raw (Kinase-Glo),"inhibitor 0.3125, sheet Sil_Pred2, read 2",107913 and 110173 and 110911
same,Luminescence Raw (Kinase-Glo),"inhibitor 0.625 (mM per sheet Pred3), sheet Kinase-Glo802124_Sil_Pred1, read 1, triplicate wells",138550 and 138736 and 130936
same,Luminescence Raw (Kinase-Glo),"inhibitor 0.625, sheet Sil_Pred2, read 2",122997 and 124612 and 121493
